# According to patent publication US10000516B2 (priority 2015, dated 2018):
# Like-named read-outs stand apart in the source and are kept apart here.
# Molecular target: T1, Human Factor D (Homo sapiens, UniProt P00746)
# T1 construct: purified from human serum; purchased Complement Technology, Inc; host or cells: human serum (natural protein, not recombinant)
# Assay: Human Factor D assay (Z-L-Lys-SBzl/DTNB, absorbance at 405 nm)
# Format: biochemical
# Method: Example 44. Human Factor D Assay
# Human Factor D (purified from human serum, Complement Technology, Inc.) at 80 nM final concentration was incubated with test compound at various concentrations for 5 minutes at room temperature in 50 mM Tris, 1M NaCl, pH 7.5. A synthetic substrate Z-L-Lys-SBzl and DTNB (Ellman's reagent) are added to final concentrations of 100 µM each. Absorbance at 405 nm (A405) was recorded at 30 second intervals for 30 minutes using a microplate spectrophotometer. IC50 values are calculated by nonlinear regression of complement Factor D reaction rates as a function of test compound concentration.
# [1] = Table 1, Human Factor D 80 nM, purified from human serum, substrate Z-L-Lys-SBzl, read-out: IC50
# [2] = Table 3, Human Factor D 80 nM, purified from human serum, substrate Z-L-Lys-SBzl, read-out: IC50 (Stars)
# T1 sequence (P00746 26-253): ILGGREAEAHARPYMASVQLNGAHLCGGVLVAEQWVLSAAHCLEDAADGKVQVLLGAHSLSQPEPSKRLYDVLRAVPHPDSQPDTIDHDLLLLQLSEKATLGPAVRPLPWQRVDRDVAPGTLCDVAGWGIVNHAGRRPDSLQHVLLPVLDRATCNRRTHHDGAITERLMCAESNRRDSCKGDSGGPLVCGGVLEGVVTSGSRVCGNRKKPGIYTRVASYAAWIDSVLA
Structure (SMILES),IC50 [2],other results
"CCP(=O)(O)c1ccc2c(C(C)=O)cn(CC(=O)N3C[C@H](F)C[C@H]3C(=O)NCc3cccc(Cl)c3F)c2c1 [Compound 27, 3-acetyl-1-(2-((2S,4R)-2-(3-chloro-2-fluorobenzylcarbamoyl)-4-fluoropyrrolidin-1-yl)-2-oxoethyl)-1H-indol-6-yl(ethyl)phosphinic acid]",–,IC50 [1]: < 1 µM
"CC(=O)c1cn(CC(=O)N2C[C@H](F)C[C@H]2C(=O)NCc2cccc(Cl)c2F)c2cc(P(=O)(O)OCOC(=O)C(C)(C)C)ccc12 [Compound 28, ((3-acetyl-1-(2-((2S,4R)-2-(3-chloro-2-fluorobenzylcarbamoyl)-4-fluoropyrrolidin-1-yl)-2-oxoethyl)-1H-indol-6-yl)(hydroxy)phosphoryloxy) methyl pivalate]",–,IC50 [1]: < 1 µM
"CC(=O)c1cn(CC(=O)N2C[C@H](F)C[C@H]2C(=O)NCc2cccc(Cl)c2F)c2cc(P(=O)(O)OCC(F)(F)F)ccc12 [Compound 29, 2,2,2-trifluoroethyl hydrogen 3-acetyl-1-(2-((2S,4R)-2-(3-chloro-2-fluorobenzylcarbamoyl)-4-fluoropyrrolidin-1-yl)-2-oxoethyl)-1H-indol-6-ylphosphonate]",–,IC50 [1]: < 1 µM
"CCOP(=O)(OCC)c1cc2c(cc1F)c(C(C)=O)cn2CC(=O)N1C[C@H](F)C[C@H]1C(=O)NCc1cccc(Cl)c1F [Compound 30, diethyl 3-acetyl-1-(2-((2S,4R)-2-(3-chloro-2-fluorobenzylcarbamoyl)-4-fluoropyrrolidin-1-yl)-2-oxoethyl)-5-fluoro-1H-indol-6-ylphosphonate]",–,IC50 [1]: < 1 µM
"CC(=O)c1cn(CC(=O)N2C[C@H](F)C[C@H]2C(=O)NCc2cccc(Cl)c2F)c2cc(P(=O)(O)O)c(F)cc12 [Compound 31, 3-acetyl-1-(2-((2S,4R)-2-(3-chloro-2-fluorobenzylcarbamoyl)-4-fluoropyrrolidin-1-yl)-2-oxoethyl)-5-fluoro-1H-indol-6-ylphosphonic acid]",–,IC50 [1]: < 1 µM
"O=C(NCc1cccc(Cl)c1F)[C@@H]1C[C@@H](F)CN1C(=O)Cn1cc(C(=O)C(F)(F)F)c2ccc(P(=O)(O)O)cc21 [Compound 32, 1-(2-((2S,4R)-2-(3-chloro-2-fluorobenzylcarbamoyl)-4-fluoropyrrolidin-1-yl)-2-oxoethyl)-3-(2,2,2-trifluoroacetyl)-1H-indol-6-ylphosphonic acid]",–,IC50: < 1 µM
"CCOP(=O)(OCC)c1ccc2c(c1)c(C(C)=O)cn2CC(=O)N1C[C@H](F)C[C@H]1C(=O)NCCc1ccccc1 [Compound 78, diethyl (3-acetyl-1-(2-((2S,4R)-4-fluoro-2-(phenethylcarbamoyl)pyrrolidin-1-yl)-2-oxoethyl)-1H-indol-5-yl)phosphonate]",> 10 µM,–
"CC(=O)c1cn(CC(=O)N2C[C@H](F)C[C@H]2C(=O)NCCc2ccccc2)c2ccc(P(=O)(O)O)cc12 [Compound 79, (3-acetyl-1-(2-((2S,4R)-4-fluoro-2-(phenethylcarbamoyl)pyrrolidin-1-yl)-2-oxoethyl)-1H-indol-5-yl)phosphonic acid]",> 10 µM,–
"CCOP(=O)(OCC)c1ccc2c(c1)c(C(C)=O)cn2CC(=O)N1C[C@H](F)C[C@H]1C(=O)NCCCc1ccccc1 [Compound 82, diethyl (3-acetyl-1-(2-((2S,4R)-4-fluoro-2-((3-phenylpropyl)carbamoyl)pyrrolidin-1-yl)-2-oxoethyl)-1H-indol-5-yl)phosphonate]",> 10 µM,–
"CC(=O)c1cn(CC(=O)N2C[C@H](F)C[C@H]2C(=O)NCCCc2ccccc2)c2ccc(P(=O)(O)O)cc12 [Compound 83, (3-acetyl-1-(2-((2S,4R)-4-fluoro-2-((3-phenylpropyl)carbamoyl)pyrrolidin-1-yl)-2-oxoethyl)-1H-indol-5-yl)phosphonic acid]",> 10 µM,–
"CCOP(=O)(OCC)c1ccc2c(c1)c(C(C)=O)cn2CC(=O)N1C[C@H](F)C[C@H]1C(=O)NCCCCc1ccccc1 [Compound 86, diethyl (3-acetyl-1-(2-((2S,4R)-4-fluoro-2-((4-phenylbutyl)carbamoyl)pyrrolidin-1-yl)-2-oxoethyl)-1H-indol-5-yl)phosphonate]",> 10 µM,–
"CC(=O)c1cn(CC(=O)N2C[C@H](F)C[C@H]2C(=O)NCCCCc2ccccc2)c2ccc(P(=O)(O)O)cc12 [Compound 87, (3-acetyl-1-(2-((2S,4R)-4-fluoro-2-((4-phenylbutyl)carbamoyl)pyrrolidin-1-yl)-2-oxoethyl)-1H-indol-5-yl)phosphonic acid]",> 10 µM,–
"CCOP(=O)(OCC)c1ccc2c(c1)c(C(C)=O)cn2CC(=O)N1C[C@H](F)C[C@H]1CCNS(=O)(=O)c1ccccc1 [Compound 95, diethyl (3-acetyl-1-(2-((2R,4R)-4-fluoro-2-(2-(phenylsulfonamido)ethyl)pyrrolidin-1-yl)-2-oxoethyl)-1H-indol-5-yl)phosphonate]",> 10 µM,–
"CC(=O)c1cn(CC(=O)N2C[C@H](F)C[C@H]2CCNS(=O)(=O)c2ccccc2)c2ccc(P(=O)(O)O)cc12 [Compound 96, (3-acetyl-1-(2-((2R,4R)-4-fIuoro-2-(2-(phenylsulfonamido)ethyl)pyrrolidin-1-yl)-2-oxoethyl)-1H-indol-5-yl)phosphonic acid]",> 10 µM,–
"CCOP(=O)(OCC)c1ccc2c(c1)c(C(C)=O)cn2CC(=O)N1CC[C@H]1C(=O)Nc1cccc(C)n1 [Compound 100, (S)-diethyl (3-acetyl-1-(2-(2-((6-methylpyridin-2-yl)carbamoyl)azetidin-1-yl)-2-oxoethyl)-1H-indol-5-yl)phosphonate]",> 10 µM,–
"CC(=O)c1cn(CC(=O)N2CC[C@H]2C(=O)Nc2cccc(C)n2)c2ccc(P(=O)(O)O)cc12 [Compound 101, (S)-(3-acetyl-1-(2-(2-((6-methylpyridin-2-yl)carbamoyl)azetidin-1-yl)-2-oxoethyl)-1H-indol-5-yl)phosphonic acid]",> 10 µM,–
"CCOP(=O)(OCC)c1ccc2c(c1)c(C(N)=O)cn2CC(=O)N1[C@@H]2CC[C@@H](C2)[C@H]1C(=O)Nc1cccc(C)n1 [Compound 102, diethyl (3-carbamoyl-1-(2-((1R,3S,4S)-3-((6-methylpyridin-2-yl)carbamoyl)-2-azabicyclo[2.2.1]heptan-2-yl)-2-oxoethyl)-1H-indol-5-yl)phosphonate]",> 10 µM,–
"Cc1cccc(NC(=O)[C@@H]2[C@H]3CC[C@H](C3)N2C(=O)Cn2cc(C(N)=O)c3cc(P(=O)(O)O)ccc32)n1 [Compound 103, (3-carbamoyl-1-(2-((1R,3S,4S)-3-((6-methylpyridin-2-yl)carbamoyl)-2-azabicyclo[2.2.1]heptan-2-yl)-2-oxoethyl)-1H-indol-5-yl)phosphonic acid]",> 10 µM,–
"CCOP(=O)(OCC)c1nc2c(s1)c(C(N)=O)nn2CC(=O)N1[C@@H]2C[C@@H]2C[C@H]1C(=O)Nc1cccc(-c2cc(C(C)=O)ccc2Cl)c1F [Compound 104, diethyl (1-(2-((1R,3S,5R)-3-((5′-acetyl-2′-chloro-2-fIuoro-[1,1′-biphenyl]-3-yl)carbamoyl)-2-azabicyclo[3.1.0]hexan-2-yl)-2-oxoethyl)-3-carbamoyl-1H-pyrazolo[3,4-d]thiazol-5-yl)phosphonate]",< 1 µM,–
"CC(=O)c1nn(CC(=O)N2C[C@H](F)C[C@H]2C(=O)Nc2cccc(Br)n2)c2cc(P(=O)(O)O)ccc12 [Compound 105, (3-acetyl-1-(2-((2S,4R)-2-((6-bromopyridin-2-yl)carbamoyl)-4-fluoropyrrolidin-1-yl)-2-oxoethyl)-1H-indazol-6-yl)phosphonic acid]",< 1 µM,–
"CC(=O)c1nn(CC(=O)N2[C@H](C(=O)Nc3cccc(Br)n3)C[C@@]3(C)C[C@@H]23)c2cc(P(=O)(O)O)ccc12 [Compound 106, (3-acetyl-1-(2-((1R,3S,5R)-3-((6-bromopyridin-2-yl)carbamoyl)-5-methyl-2-azabicyclo[3.1.0]hexan-2-yl)-2-oxoethyl)-1H-indazol-6-yl) phosphonic acid]",< 1 µM,–
CCOP(=O)(OCC)c1nc2c(s1)c(C(N)=O)nn2CC(=O)N1C[C@H](F)C[C@H]1C(=O)Nc1cccc(C)n1 [Compound 146],> 10 µM,–
CCOP(=O)(OCC)c1nc2c(s1)c(C(N)=O)nn2CC(=O)N1C[C@H](F)C[C@H]1C(=S)NC1CCC(c2cc3sccc3s2)C1 (some centres unmarked) [Compound 148],> 10 µM,–
